Reference: ChEMBL document CHEMBL3351501, “Inhibition of pseudolysin and thermolysin by hydroxamate-based MMP inhibitors” (Eur J Med Chem, 2015)

How the values were obtained:
[1] = Inhibition of Bacillus thermoproteolyticus thermolysin using Mca-Arg-Pro-Pro-Gly-Phe-Ser-Ala-Phe-Lys-(Dnp)-OH as substrate after 1 hr by fluorescence assay in presence of Brij-35
[2] = target: T1, Elastase (Pseudomonas aeruginosa (strain ATCC 15692 / PAO1 / 1C / PRS 101 / LMG12228), UniProt P14756); assay: Inhibition of Pseudomonas aeruginosa pseudolysin using Abz-Ala-Gly-Leu-Ala-p-nitrobenzylamide as substrate after 15 mins
[3] = target: T1, Elastase; assay: Inhibition of Pseudomonas aeruginosa pseudolysin using Mca-Arg-Pro-Pro-Gly-Phe-Ser-Ala-Phe-Lys-(Dnp)-OH as substrate after 1 hr by fluorescence assay in presence of Brij-35

T1 sequence (P14756 whole entry): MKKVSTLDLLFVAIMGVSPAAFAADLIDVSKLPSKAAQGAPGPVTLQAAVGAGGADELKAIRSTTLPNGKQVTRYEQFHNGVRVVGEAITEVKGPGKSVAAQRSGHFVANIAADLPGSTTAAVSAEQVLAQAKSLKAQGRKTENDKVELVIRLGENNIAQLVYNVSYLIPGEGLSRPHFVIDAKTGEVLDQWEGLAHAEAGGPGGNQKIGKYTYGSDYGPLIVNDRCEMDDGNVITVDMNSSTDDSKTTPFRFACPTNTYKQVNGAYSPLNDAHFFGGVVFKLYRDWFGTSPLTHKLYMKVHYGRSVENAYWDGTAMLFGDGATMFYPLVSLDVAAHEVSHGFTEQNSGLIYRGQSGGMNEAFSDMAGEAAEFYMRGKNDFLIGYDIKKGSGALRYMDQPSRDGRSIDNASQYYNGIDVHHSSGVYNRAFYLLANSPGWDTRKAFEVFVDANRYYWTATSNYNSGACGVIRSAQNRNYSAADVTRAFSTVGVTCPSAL

Compound | IC50 [1] | IC50 [2] | IC50 [3]
COc1ccc(S(=O)(=O)N(CC(=O)O)CC(=O)NCCc2ccc(S(N)(=O)=O)cc2)cc1 | 637 µM | > 282 µM | 
COc1ccc(S(=O)(=O)N(CC(=O)NO)CC(=O)NCCc2ccc(S(N)(=O)=O)cc2)cc1 | 164 µM | 15 µM | 33 µM
NS(=O)(=O)c1ccc(CCNC(=O)CN(CC(=O)NO)S(=O)(=O)c2ccc(Oc3ccccc3)cc2)cc1 | 160 µM | 16 µM | 276 µM
NS(=O)(=O)c1ccc(CCNC(=O)CN(CC(=O)NO)S(=O)(=O)c2ccc(-c3ccccc3)cc2)cc1 | 67 µM | 31 µM | 
NS(=O)(=O)c1ccc(CCNC(=O)CN(CC(=O)NO)Cc2ccccc2)cc1 | 12 µM | 0.4 µM | 
O=C(O)CN(CC(=O)NO)Cc1ccc([N+](=O)[O-])cc1 | 755 µM | 20 µM | 
O=C(O)CN(CC(=O)NO)Cc1ccc(-c2ccccc2)cc1 | > 1000 µM | > 121 µM | 
O=C(O)CN(CC(=O)NO)Cc1ccc(Oc2ccccc2)cc1 | 524 µM | > 200 µM | 430 µM
O=C(O)CN(CC(=O)NO)S(=O)(=O)c1ccc(-c2ccccc2)cc1 | 440 µM | > 150 µM | 241 µM
O=C(O)CN(CC(=O)NO)NCCCN1CCN(c2ccccc2)CC1 | > 1000 µM | > 330 µM | 
O=C(CN(CC(=O)NCCCN1CCN(c2ccccc2)CC1)Cc1ccccc1)NO | 8 µM | 6.7 µM | 2.8 µM
O=C(O)CN(CC(=O)NO)S(=O)(=O)c1ccc(Oc2ccccc2)cc1 | 114 µM | > 186 µM | 46 µM
COc1ccc(S(=O)(=O)N(CC(=O)O)CC(=O)NO)cc1 | 270 µM | 169 µM | 153 µM
CC(C)[C@H](C(=O)NO)N(CC(=O)O)S(=O)(=O)c1ccc(Oc2ccccc2)cc1 | > 1000 µM | 82 µM | 336 µM
